From ChEMBL document CHEMBL1135273, “5-Phosphonomethylquinoxalinediones as competitive NMDA receptor antagonists with a preference for the human 1A/2A, rather than 1A/2B receptor composition” (Bioorg Med Chem Lett, 2002)
The source made the active and inactive calls. No cut-off for these calls is given here.

Key:
[1] = species: Mus musculus; assay: Anticonvulsant effect in mouse electroshock-induced seizure test (MES).; type: functional
[2] = target: Glutamate NMDA receptor; GRIN1/GRIN2B (Homo sapiens, UniProt Q05586+Q13224); assay: Inhibitory activity against Xenopus laevis oocyte expressing 1A/2B heteromeric human NMDA (hNMDA) receptor; type: protein-complex assay
[3] = target: Glutamate NMDA receptor; GRIN1/GRIN2A (Homo sapiens, UniProt Q05586+Q12879); assay: Inhibitory activity against Xenopus laevis oocyte expressing 1A/2A heteromeric human NMDA (hNMDA) receptor; type: protein-complex assay
[4] = target: Glutamate [NMDA] receptor; assay: In vitro inhibitory activity at 1 uM concentration against N-methyl-D-aspartate glutamate receptor, using [3H]CGP-39653 binding assay; type: protein-complex assay
[5] = test system: GRIN1/GRIN2A vs GRIN1/GRIN2B (Homo sapiens); assay: Ratio of human NMDA 1A/2A receptor to human NMDA 1A/2B receptor was determined in xenopus oocytes; 1/9; settings: Oocyte
[6] = test system: Mus musculus; assay: Compound at a dose 50 mg/kg was administered intraperitoneally into mouse and percent protection was determined after 1 hour; type: functional; settings: route intraperitoneal
[7] = test system: GRIN1/GRIN2A vs GRIN1/GRIN2B (Homo sapiens); assay: Ratio of human NMDA 1A/2A receptor to human NMDA 1A/2B receptor was determined in xenopus oocytes; 1/8; settings: Oocyte
[8] = test system: GRIN1/GRIN2A vs GRIN1/GRIN2B (Homo sapiens); assay: Ratio of human NMDA 1A/2A receptor to human NMDA 1A/2B receptor was determined in xenopus oocytes; 1/50; settings: Oocyte
[9] = test system: GRIN1/GRIN2A vs GRIN1/GRIN2B (Homo sapiens); assay: Ratio of human NMDA 1A/2A receptor to human NMDA 1A/2B receptor was determined in xenopus oocytes; 1/40; settings: Oocyte
[10] = test system: Mus musculus; assay: Compound was evaluated for its anticonvulsant effect in mouse electroshock-induced seizure test (MES), 8 hr after intraperitoneal administration; type: functional; settings: ip
[11] = test system: Mus musculus; assay: Compound was evaluated for its anticonvulsant effect in mouse electroshock-induced seizure test (MES), 8 hr after oral administration; type: functional
[12] = Compound was tested in vitro for its inhibitory activity against Xenopus laevis oocyte expressing 1A/2B heteromeric human NMDA (hNMDA) receptor
[13] = target: Glutamate [NMDA] receptor; assay: Compound was tested in vitro for its inhibitory activity at 1 uM concentration against N-methyl-D-aspartate glutamate receptor by using [3H]CGP-39653 binding assay; type: protein-complex assay
[14] = Compound was tested in vitro for its inhibitory activity against Xenopus laevis oocyte expressing 1A/2A heteromeric human NMDA (hNMDA) receptor
[15] = test system: GRIN1/GRIN2A vs GRIN1/GRIN2B (Homo sapiens); assay: Ratio of human NMDA 1A/2A receptor to human NMDA 1A/2B receptor was determined in xenopus oocytes; 1/15; settings: Oocyte
[16] = test system: GRIN1/GRIN2A vs GRIN1/GRIN2B (Homo sapiens); assay: Ratio of human NMDA 1A/2A receptor to human NMDA 1A/2B receptor was determined in xenopus oocytes; 1/11; settings: Oocyte
[17] = test system: Glutamate [NMDA] receptor; assay: The compound was tested in vitro for its inhibitory activity at 1 uM concentration against N-methyl-D-aspartate glutamate receptor by using [3H]CGP-39653 binding assay; Inactive; type: protein-complex assay
[18] = test system: GRIN1/GRIN2A vs GRIN1/GRIN2B (Homo sapiens); assay: Ratio of human NMDA 1A/2A receptor to human NMDA 1A/2B receptor was determined in xenopus oocytes; 1/13; settings: Oocyte
[19] = test system: GRIN1/GRIN2A vs GRIN1/GRIN2B (Homo sapiens); assay: Ratio of human NMDA 1A/2A receptor to human NMDA 1A/2B receptor was determined in xenopus oocytes; 1/14; settings: Oocyte
[20] = test system: GRIN1/GRIN2A vs GRIN1/GRIN2B (Homo sapiens); assay: Ratio of human NMDA 1A/2A receptor to human NMDA 1A/2B receptor was determined in xenopus oocytes; 1/10; settings: Oocyte
[21] = test system: GRIN1/GRIN2A vs GRIN1/GRIN2B (Homo sapiens); assay: Ratio of human NMDA 1A/2A receptor to human NMDA 1A/2B receptor was determined in xenopus oocytes; 1/111; settings: Oocyte
[22] = target: Glutamate [NMDA] receptor (Homo sapiens) (UniProt Q05586+Q12879+Q13224+O15399+O60391+Q14957+Q8TCU5); assay: The compound was tested in vitro for percent inhibition at 1 uM concentration against N-methyl-D-aspartate glutamate receptor by using [3H]CGP-39653 binding assay; type: protein-complex assay
[23] = test system: GRIN1/GRIN2A vs GRIN1/GRIN2B (Homo sapiens); assay: Ratio of human NMDA 1A/2A receptor to human NMDA 1A/2B receptor was determined in xenopus oocytes; 1/7; settings: Oocyte
[24] = test system: GRIN1/GRIN2A vs GRIN1/GRIN2B (Homo sapiens); assay: Ratio of human NMDA 1A/2A receptor to human NMDA 1A/2B receptor was determined in xenopus oocytes; 1/1; settings: Oocyte
[25] = test system: GRIN1/GRIN2A vs GRIN1/GRIN2B (Homo sapiens); assay: Ratio of human NMDA 1A/2A receptor to human NMDA 1A/2B receptor was determined in xenopus oocytes; >1/17; settings: Oocyte
[26] = test system: GRIN1/GRIN2A vs GRIN1/GRIN2B (Homo sapiens); assay: Ratio of human NMDA 1A/2A receptor to human NMDA 1A/2B receptor was determined in xenopus oocytes; 1/26; settings: Oocyte

Glutamate NMDA receptor; GRIN1/GRIN2B, sequence (Q13224 whole entry, other chains not shown): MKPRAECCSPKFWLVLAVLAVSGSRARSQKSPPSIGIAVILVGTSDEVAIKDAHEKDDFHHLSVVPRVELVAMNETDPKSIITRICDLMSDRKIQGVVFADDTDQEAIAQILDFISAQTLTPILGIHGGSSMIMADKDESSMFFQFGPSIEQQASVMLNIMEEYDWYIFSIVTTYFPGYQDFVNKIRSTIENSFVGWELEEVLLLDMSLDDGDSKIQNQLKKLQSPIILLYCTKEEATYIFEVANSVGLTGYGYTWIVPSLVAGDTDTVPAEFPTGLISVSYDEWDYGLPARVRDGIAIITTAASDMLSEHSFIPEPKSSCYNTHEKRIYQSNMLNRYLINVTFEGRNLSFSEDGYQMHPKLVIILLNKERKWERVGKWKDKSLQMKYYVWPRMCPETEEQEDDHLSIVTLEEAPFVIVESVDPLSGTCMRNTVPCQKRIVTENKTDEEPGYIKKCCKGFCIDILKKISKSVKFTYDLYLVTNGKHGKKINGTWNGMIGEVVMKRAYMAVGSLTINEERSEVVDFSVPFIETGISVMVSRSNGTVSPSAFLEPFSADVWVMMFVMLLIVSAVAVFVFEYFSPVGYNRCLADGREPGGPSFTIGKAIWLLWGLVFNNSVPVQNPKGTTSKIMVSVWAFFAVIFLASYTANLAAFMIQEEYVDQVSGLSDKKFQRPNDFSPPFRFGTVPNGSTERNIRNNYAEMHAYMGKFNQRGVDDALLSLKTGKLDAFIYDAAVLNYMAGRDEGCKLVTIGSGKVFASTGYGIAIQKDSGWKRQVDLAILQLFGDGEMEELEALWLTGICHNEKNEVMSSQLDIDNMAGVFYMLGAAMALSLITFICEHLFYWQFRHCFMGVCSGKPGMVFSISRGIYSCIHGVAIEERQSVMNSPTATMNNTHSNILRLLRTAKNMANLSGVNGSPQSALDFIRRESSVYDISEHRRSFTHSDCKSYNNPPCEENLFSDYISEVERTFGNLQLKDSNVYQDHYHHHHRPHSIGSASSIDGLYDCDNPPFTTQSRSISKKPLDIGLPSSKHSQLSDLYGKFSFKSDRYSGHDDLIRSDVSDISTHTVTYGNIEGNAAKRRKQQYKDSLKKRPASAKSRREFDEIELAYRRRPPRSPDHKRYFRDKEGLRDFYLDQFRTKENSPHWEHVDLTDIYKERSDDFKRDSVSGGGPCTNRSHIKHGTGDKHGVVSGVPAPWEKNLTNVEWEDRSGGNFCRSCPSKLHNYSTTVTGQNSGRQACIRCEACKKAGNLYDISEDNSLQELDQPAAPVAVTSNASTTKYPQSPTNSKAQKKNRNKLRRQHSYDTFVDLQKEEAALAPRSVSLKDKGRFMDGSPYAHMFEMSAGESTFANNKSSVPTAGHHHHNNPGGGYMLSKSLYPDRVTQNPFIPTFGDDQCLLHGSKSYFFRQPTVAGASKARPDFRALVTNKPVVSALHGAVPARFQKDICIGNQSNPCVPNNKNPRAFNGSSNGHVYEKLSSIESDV
Glutamate NMDA receptor; GRIN1/GRIN2A, sequence (Q12879 whole entry, other chains not shown): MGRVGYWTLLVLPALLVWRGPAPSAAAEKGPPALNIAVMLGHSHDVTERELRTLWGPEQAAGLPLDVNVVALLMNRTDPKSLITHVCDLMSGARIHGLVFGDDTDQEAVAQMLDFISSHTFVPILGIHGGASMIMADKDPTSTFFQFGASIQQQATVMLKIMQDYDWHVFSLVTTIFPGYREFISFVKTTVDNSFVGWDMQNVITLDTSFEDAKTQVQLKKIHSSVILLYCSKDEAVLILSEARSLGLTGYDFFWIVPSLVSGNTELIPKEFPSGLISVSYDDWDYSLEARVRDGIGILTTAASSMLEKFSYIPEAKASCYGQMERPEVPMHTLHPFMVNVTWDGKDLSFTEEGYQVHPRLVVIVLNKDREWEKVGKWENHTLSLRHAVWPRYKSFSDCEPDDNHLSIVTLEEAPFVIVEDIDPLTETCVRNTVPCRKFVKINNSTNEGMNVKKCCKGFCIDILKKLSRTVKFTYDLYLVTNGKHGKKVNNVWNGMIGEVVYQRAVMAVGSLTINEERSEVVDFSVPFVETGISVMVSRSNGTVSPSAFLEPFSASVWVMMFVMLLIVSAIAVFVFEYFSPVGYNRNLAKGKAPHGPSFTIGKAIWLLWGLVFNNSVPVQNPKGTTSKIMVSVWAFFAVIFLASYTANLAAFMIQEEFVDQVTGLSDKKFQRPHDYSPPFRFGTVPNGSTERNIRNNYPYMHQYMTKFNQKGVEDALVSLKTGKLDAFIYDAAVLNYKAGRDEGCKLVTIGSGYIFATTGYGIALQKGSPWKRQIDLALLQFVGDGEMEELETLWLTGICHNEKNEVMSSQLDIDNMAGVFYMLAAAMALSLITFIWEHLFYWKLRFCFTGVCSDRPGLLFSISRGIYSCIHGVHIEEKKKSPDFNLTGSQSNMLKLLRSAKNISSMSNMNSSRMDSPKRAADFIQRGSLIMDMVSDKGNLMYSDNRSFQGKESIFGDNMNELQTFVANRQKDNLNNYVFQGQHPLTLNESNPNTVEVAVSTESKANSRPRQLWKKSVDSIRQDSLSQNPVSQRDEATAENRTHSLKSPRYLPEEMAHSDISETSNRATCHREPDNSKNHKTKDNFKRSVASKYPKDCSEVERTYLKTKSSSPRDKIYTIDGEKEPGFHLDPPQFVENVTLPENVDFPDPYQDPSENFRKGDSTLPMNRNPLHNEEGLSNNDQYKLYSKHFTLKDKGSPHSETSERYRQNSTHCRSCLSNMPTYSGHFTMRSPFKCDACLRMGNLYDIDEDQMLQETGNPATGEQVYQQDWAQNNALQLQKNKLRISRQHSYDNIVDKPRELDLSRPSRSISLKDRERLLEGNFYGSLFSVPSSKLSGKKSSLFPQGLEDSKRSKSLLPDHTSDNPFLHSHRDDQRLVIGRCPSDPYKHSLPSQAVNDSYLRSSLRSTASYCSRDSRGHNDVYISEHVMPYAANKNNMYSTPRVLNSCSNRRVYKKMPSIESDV

| Structure (SMILES) | ED50 [1] [mg/kg] | IC50 [2] [nM] | IC50 [3] [nM] | IC50 [4] [nM] | also measured |
| --- | --- | --- | --- | --- | --- |
| O=P(O)(O)C(NC(c1ccccc1)c1ccccc1)c1cccc2nc(O)c(O)nc12 (configuration not stated) | 2.3 | 1500 | 170 | 38 | Ratio [5]: Active |
| COC(c1cc([N+](=O)[O-])cc2nc(O)c(O)nc12)P(=O)(O)O (configuration not stated) | – | – | – | 17 | – |
| O=P(O)(O)C(Nc1ccccc1)c1cccc2nc(O)c(O)nc12 (configuration not stated) | – | 6200 | 490 | 130 | Protection [6]: 0%; Ratio [7]: Active |
| CC(=O)N(C)C(c1cccc2nc(O)c(O)nc12)P(=O)(O)O (configuration not stated) | – | 24000 | 2800 | 860 | Ratio [5]: Active |
| C[C@H](NC(c1cccc2nc(O)c(O)nc12)P(=O)(O)O)c1ccccc1 (some centres not stated) | 6.7 | 900 | 18 | 9.7 | Ratio [8]: Active |
| O=P(O)(O)C(NCCc1ccccc1)c1cccc2nc(O)c(O)nc12 (configuration not stated) | 10 | 1600 | 40 | 7.4 | Ratio [9]: Active |
| O=P(O)(O)Cc1cc(F)cc2nc(O)c(O)nc12 | – | – | – | 1 | – |
| C[C@H](NC(c1cccc2[nH]c(=O)c(=O)[nH]c12)P(=O)(O)O)c1ccc(Br)cc1 (some centres not stated) | – | 29600 | 270 | 8 | – |
| O=P(O)(O)Cc1cccc2nc(O)c(O)nc12 | 0.7 | – | – | – | ED50 [10]: 1.1 mg/kg; ED50 [11]: 6.7 mg/kg; IC50 [12]: 30 nM; IC50 [13]: 0.5 nM; IC50 [14]: 2 nM; Ratio [15]: Active |
| O=C(O)Cc1cccc2nc(O)c(O)nc12 | – | – | – | 250 | – |
| C[C@@H](NC(c1cccc2nc(O)c(O)nc12)P(=O)(O)O)c1ccccc1 (some centres not stated) | – | 570 | 50 | 31 | Protection [6]: 60%; Ratio [16]: Active |
| O=P(O)(O)Cc1ccc2nc(O)c(O)nc2c1 | – | – | – | – | IC50 [17]: Not Active |
| Br.O=P(O)(O)C(NCc1ccccc1)c1cccc2nc(O)c(O)nc12 (configuration not stated) | 2 | 34 | 4.2 | 2 | Ratio [7]: Active |
| Br.O=[N+]([O-])c1cc(C(NCc2ccccc2)P(=O)(O)O)c2nc(O)c(O)nc2c1 (configuration not stated) | 1.5 | – | – | 1.5 | – |
| COC(=O)NC(c1cc([N+](=O)[O-])cc2nc(O)c(O)nc12)P(=O)(O)O (configuration not stated) | 8.8 | 1400 | 110 | 370 | Ratio [18]: Active |
| O=P(O)(O)C(N[C@H]1CCc2ccccc21)c1cccc2nc(O)c(O)nc12 (some centres not stated) | 2 | 820 | 60 | 120 | Ratio [19]: Active |
| CCCNC(c1cc([N+](=O)[O-])cc2nc(O)c(O)nc12)P(=O)(O)O.Cl (configuration not stated) | 2.8 | 930 | 90 | 65 | Ratio [20]: Active |

| Structure (SMILES) | ED50 [1] [mg/kg] | IC50 [2] [nM] | IC50 [3] [nM] | IC50 [4] [nM] | also measured |
| --- | --- | --- | --- | --- | --- |
| C[C@H](NC(c1cccc2nc(O)c(O)nc12)P(=O)(O)O)c1ccc(Br)cc1 (some centres not stated) | 23 | – | – | – | Ratio [21]: Active |
| O=P(O)(O)Cc1cc(Cl)cc2nc(O)c(O)nc12 | 2.4 | – | – | 1.7 | – |
| Cl.O=[N+]([O-])c1cc(C(NCC2CCCCC2)P(=O)(O)O)c2nc(O)c(O)nc2c1 (configuration not stated) | 4 | – | – | 3 | – |
| CP(=O)(O)C(O)c1cc([N+](=O)[O-])cc2nc(O)c(O)nc12 (configuration not stated) | – | – | – | – | Protection [6]: 0%; inhibition [22]: 42% |
| Br.CP(=O)(O)C(NCc1ccccc1)c1cc([N+](=O)[O-])cc2nc(O)c(O)nc12 (configuration not stated) | – | 1300 | 200 | 80 | Protection [6]: 0%; Ratio [23]: Active |
| O=P(O)(O)C(O)c1cccc2nc(O)c(O)nc12 (configuration not stated) | 0.5 | 0.7 | 1.1 | 1.5 | Ratio [24]: Active |
| O=P(O)(O)Cc1cc(-c2ccc(Cl)cc2)cc2nc(O)c(O)nc12 | 0.7 | 1.8 | 0.2 | 0.8 | Ratio [5]: Active |
| C[C@H](NC(c1cccc2nc(O)c(O)nc12)P(=O)(O)O)c1cccc2ccccc12 (some centres not stated) | 15 | > 30000 | 1700 | 27 | Ratio [25]: Active |
| CC(=O)OC(c1cc([N+](=O)[O-])cc2nc(O)c(O)nc12)P(=O)(O)O (configuration not stated) | 5 | – | – | 8.1 | – |
| Cl.NC(c1cc([N+](=O)[O-])cc2nc(O)c(O)nc12)P(=O)(O)O (configuration not stated) | 11.6 | – | – | 40 | – |
| Br.O=[N+]([O-])c1cc(C(NCc2ccccc2)P(=O)(O)Cc2ccccc2)c2nc(O)c(O)nc2c1 (configuration not stated) | – | 1300 | 50 | 60 | Protection [6]: 20%; Ratio [26]: Active |
| O=[N+]([O-])c1cc(C(O)P(=O)(O)O)c2nc(O)c(O)nc2c1 (configuration not stated) | 1.2 | – | – | 1.2 | – |
| CN(Cc1ccccc1)C(c1cccc2nc(O)c(O)nc12)P(=O)(O)O (configuration not stated) | – | 30000 | 600 | 160 | Protection [6]: 40%; Ratio [8]: Active |
| O=P(O)(O)Cc1cc(Br)cc2nc(O)c(O)nc12 | 2.5 | – | – | 1.5 | – |
| Br.O=[N+]([O-])c1cc(C(NCc2ccco2)P(=O)(O)O)c2nc(O)c(O)nc2c1 (configuration not stated) | 3.7 | – | – | 4.1 | – |
| CNC(c1cccc2nc(O)c(O)nc12)P(=O)(O)O (configuration not stated) | – | 6200 | 790 | 1100 | Ratio [7]: Active |
